Measurements taken from PubChem BioAssay (NCI).
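The compound was tested at five concentrations on cells cultured in 96-well plates, with a 48-hour exposure period. TGI: concentration producing complete growth inhibition.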

Experiments:
Test in all cases: NCI-60 cell line screen, 48 h
[1] = tested on: NCI-H23 lung
[2] = tested on: CCRF-CEM leukemia
[3] = tested on: IGROV1 ovarian
[4] = tested on: RPMI-8226 leukemia
[5] = tested on: SF-268 CNS
[6] = tested on: MOLT-4 leukemia
[7] = tested on: SK-OV-3 ovarian
[8] = tested on: NCI-H460 lung
[9] = tested on: MALME-3M melanoma
[10] = tested on: MDA-N
[11] = tested on: RXF 393 renal
[12] = tested on: KM12 colon
[13] = tested on: K-562 leukemia
[14] = tested on: OVCAR-5 ovarian
[15] = tested on: U251 CNS
[16] = tested on: M14 melanoma
[17] = tested on: TK-10 renal
[18] = tested on: HS 578T breast
[19] = tested on: COLO 205 colon
[20] = tested on: NCI-H226 lung
[21] = tested on: SN12C renal
[22] = tested on: SNB-19 CNS
[23] = tested on: DU-145 prostate
[24] = tested on: OVCAR-3 ovarian
[25] = tested on: MCF7 breast
[26] = tested on: HL-60(TB) leukemia
[27] = tested on: NCI-H522 lung
[28] = tested on: SK-MEL-2 melanoma
[29] = tested on: HCT-116 colon
[30] = tested on: SF-295 CNS
[31] = tested on: SW-620 colon
[32] = tested on: A549 NSCLC
[33] = tested on: SK-MEL-5 melanoma
[34] = tested on: ACHN renal
[35] = tested on: UO-31 renal
[36] = tested on: HCT-15 colon
[37] = tested on: LOX IMVI melanoma
[38] = tested on: HCC-2998 colon
[39] = tested on: MDA-MB-435
[40] = tested on: MDA-MB-231 breast
[41] = tested on: SF-539 CNS
[42] = tested on: 786-0 renal
[43] = tested on: CAKI-1 renal
[44] = tested on: SR leukemia
[45] = tested on: A498 renal
[46] = tested on: EKVX NSCLC
[47] = tested on: NCI/ADR-RES ovarian
[48] = tested on: BT-549 breast
[49] = tested on: PC-3 prostate
[50] = tested on: SNB-75 CNS
[51] = tested on: HOP-62 NSCLC
[52] = tested on: T-47D breast
[53] = tested on: SK-MEL-28 melanoma
[54] = tested on: UACC-62 melanoma
[55] = tested on: HT29 colon
[56] = tested on: OVCAR-8 ovarian
[57] = tested on: UACC-257 melanoma
[58] = tested on: OVCAR-4 ovarian

C=CCOC1=C(OC(C)=O)C(=O)OC1C1COC(C)(C)O1 (centres undefined)
TGI [1]: > 83.2 µM
TGI [2]: > 60.4 µM
TGI [3]: > 100 µM
TGI [4]: > 100 µM
TGI [5]: > 100 µM
TGI [6]: 45.7 µM
TGI [7]: > 100 µM
TGI [8]: > 100 µM
TGI [9]: 57.1 µM
TGI [10]: > 100 µM
TGI [11]: > 56.5 µM
TGI [12]: > 65.6 µM
TGI [13]: > 56.5 µM
TGI [14]: > 100 µM
TGI [15]: > 100 µM
TGI [16]: > 80.7 µM
TGI [17]: > 100 µM
TGI [18]: > 100 µM
TGI [19]: > 58.9 µM
TGI [20]: > 100 µM
TGI [21]: > 68.7 µM
TGI [22]: > 100 µM
TGI [23]: > 100 µM
TGI [24]: 31.4 µM
TGI [25]: > 66.4 µM
TGI [26]: > 60.8 µM
TGI [27]: 34.6 µM
TGI [28]: 98.9 µM
TGI [29]: > 65.2 µM
TGI [30]: > 100 µM
TGI [31]: > 59.7 µM
TGI [32]: > 100 µM
TGI [33]: > 100 µM
TGI [34]: 46.6 µM
TGI [35]: > 79.4 µM
TGI [36]: 46.2 µM
TGI [37]: 33.2 µM
TGI [38]: > 100 µM
TGI [39]: > 74 µM
TGI [40]: > 100 µM
TGI [41]: > 74.8 µM
TGI [42]: > 60.7 µM
TGI [43]: > 57.1 µM
TGI [44]: 9.02 µM
TGI [45]: > 100 µM
TGI [46]: > 68 µM
TGI [47]: > 100 µM
TGI [48]: > 88.2 µM
TGI [49]: > 100 µM
TGI [50]: > 71.3 µM
TGI [51]: > 100 µM
TGI [52]: > 63.7 µM
TGI [53]: 31.9 µM
TGI [54]: > 100 µM
TGI [55]: > 83.2 µM
TGI [56]: > 84.6 µM
TGI [57]: > 100 µM
TGI [58]: 32.1 µM

CC(C)(C)[Si](C)(C)OC1(CCc2ccccc2OS(=O)(=O)C(F)(F)F)CCCC=C1COCc1ccccc1 (centres undefined)
TGI [1]: > 100 µM
TGI [2]: > 76.4 µM
TGI [3]: > 100 µM
TGI [4]: > 52.7 µM
TGI [5]: > 100 µM
TGI [6]: > 62.3 µM
TGI [7]: > 100 µM
TGI [8]: > 100 µM
TGI [10]: > 100 µM
TGI [11]: 90.8 µM
TGI [12]: > 100 µM
TGI [13]: > 100 µM
TGI [14]: > 100 µM
TGI [15]: > 100 µM
TGI [16]: > 100 µM
TGI [17]: > 100 µM
TGI [18]: > 100 µM
TGI [19]: > 100 µM
TGI [20]: > 100 µM
TGI [21]: > 100 µM
TGI [22]: > 100 µM
TGI [23]: > 100 µM
TGI [24]: > 100 µM
TGI [25]: > 54.8 µM
TGI [26]: > 55.3 µM
TGI [28]: > 100 µM
TGI [29]: > 100 µM
TGI [30]: > 100 µM
TGI [31]: > 100 µM
TGI [32]: > 100 µM
TGI [33]: > 100 µM
TGI [34]: > 50.9 µM
TGI [35]: > 100 µM
TGI [36]: > 100 µM
TGI [37]: > 100 µM
TGI [38]: > 100 µM
TGI [39]: > 100 µM
TGI [40]: > 100 µM
TGI [41]: > 100 µM
TGI [42]: > 100 µM
TGI [43]: > 100 µM
TGI [44]: > 100 µM
TGI [45]: > 100 µM
TGI [46]: > 100 µM
TGI [47]: > 100 µM
TGI [48]: > 100 µM
TGI [49]: > 100 µM
TGI [50]: > 100 µM
TGI [51]: > 100 µM
TGI [52]: > 100 µM
TGI [53]: > 100 µM
TGI [54]: > 53 µM
TGI [55]: > 100 µM
TGI [56]: > 100 µM
TGI [57]: > 100 µM
TGI [58]: > 100 µM

O=C(Nc1ccn(C2CCC(CO)O2)c(=O)n1)c1ccccc1 (centres undefined)
TGI [1]: > 100 µM
TGI [2]: > 100 µM
TGI [3]: > 100 µM
TGI [4]: > 100 µM
TGI [5]: > 100 µM
TGI [6]: > 100 µM
TGI [7]: > 100 µM
TGI [9]: > 100 µM
TGI [10]: > 100 µM
TGI [11]: > 100 µM
TGI [12]: > 100 µM
TGI [13]: > 100 µM
TGI [14]: > 100 µM
TGI [15]: > 100 µM
TGI [16]: > 100 µM
TGI [17]: > 100 µM
TGI [18]: > 100 µM
TGI [19]: > 100 µM
TGI [20]: > 100 µM
TGI [21]: > 100 µM
TGI [22]: > 100 µM
TGI [23]: > 100 µM
TGI [25]: > 100 µM
TGI [26]: > 100 µM
TGI [27]: > 100 µM
TGI [28]: > 100 µM
TGI [29]: > 100 µM
TGI [30]: > 100 µM
TGI [31]: > 100 µM
TGI [32]: > 100 µM
TGI [33]: > 100 µM
TGI [34]: > 100 µM
TGI [35]: > 100 µM
TGI [36]: > 100 µM
TGI [37]: > 100 µM
TGI [38]: > 100 µM
TGI [39]: > 100 µM
TGI [40]: > 100 µM
TGI [41]: > 100 µM
TGI [42]: > 100 µM
TGI [43]: > 100 µM
TGI [44]: > 100 µM
TGI [45]: > 100 µM
TGI [46]: > 100 µM
TGI [47]: > 100 µM
TGI [48]: > 100 µM
TGI [49]: > 100 µM
TGI [50]: > 100 µM
TGI [51]: > 100 µM
TGI [52]: > 100 µM
TGI [53]: > 100 µM
TGI [54]: > 100 µM
TGI [55]: > 100 µM
TGI [56]: > 100 µM
TGI [57]: > 100 µM
